Experimental data as given in US11142519B2, “Pesticidally active pyrazole derivatives” (SYNGENTA PARTICIPATIONS AG, priority 2017, dated 2021).

Columns and labels:
Assay type in all cases: in vivo
[1] = tested on: Thrips tabaci; assay: Thrips tabaci (Onion thrips) sunflower leaf disc spray test; conditions: foliar, 144 h, application rate of 200 ppm, population of mixed ages, 6 days after infestation
Protocol: Thrips tabaci (Onion thrips):
(§1) Sunflower leaf discs were placed on agar in 24-well microtiter plates and sprayed with aqueous test solutions prepared from 10,000 ppm DMSO stock solutions. After drying the leaf discs were infested with a thrips population of mixed ages. The samples were assessed for mortality 6 days after infestation.

[2] = tested on: Diabrotica balteata; assay: Diabrotica balteata (Corn root worm) maize sprout spray test; conditions: 96 h, application rate of 200 ppm, L2 larvae, 4 days after infestation, read-out: effect in at least one of the two categories (mortality or growth inhibition)
Protocol: Diabrotica balteata, (Corn root worm)
Maize sprouts, placed on an agar layer in 24-well microtiter plates were treated with aqueous test solutions prepared from 10,000 ppm DMSO stock solutions by spraying. After drying, the plates were infested with L2 larvae (6 to 10 per well). The samples were assessed for mortality and growth inhibition in comparison to untreated samples 4 days after infestation. The following compounds gave an effect of at least 80% in at least one of the two categories (mortality or growth inhibition) at an application rate of 200 ppm: 1, 2, 3 and 7.

[3] = tested on: Spodoptera littoralis; assay: Spodoptera littoralis (Egyptian cotton leaf worm) cotton leaf disc spray test; conditions: foliar, 72 h, application rate of 200 ppm, L1 larvae, 3 days after infestation, read-out: control (at least one of mortality, anti-feedant effect, growth inhibition)
Protocol: Spodoptera littoralis (Egyptian cotton leaf worm)
Cotton leaf discs were placed on agar in 24-well microtiter plates and sprayed with aqueous test solutions prepared from 10,000 ppm DMSO stock solutions. After drying the leaf discs were infested with five L1 larvae. The samples were assessed for mortality, anti-feedant effect, and growth inhibition in comparison to untreated samples 3 days after infestation. Control of Spodoptera littoralis by a test sample is when at least one of mortality, anti-feedant effect, and growth inhibition is higher than the untreated sample.

[4] = tested on: Tetranychus urticae; assay: Tetranychus urticae (Two-spotted spider mite) bean leaf disc spray test; conditions: foliar, 192 h, application rate of 200 ppm, 8 days after infestation, read-out: mortality on mixed population (mobile stages)
Protocol: Tetranychus urticae (Two-spotted spider mite):
as §1, with “Bean” for “Sunflower”, “discs” for “discs were placed”, “were” for “and”, “mite” for “thrips”, “on mixed population (mobile stages) 8” for “6”

[5] = tested on: Plutella xylostella; assay: Plutella xylostella (Diamond back moth) artificial diet test; conditions: 120 h, application rate of 200 ppm, L2 larvae, 5 days after infestation, read-out: effect in at least one of the two categories (mortality or growth inhibition)
Protocol: Plutella xylostella (Diamond back moth):
24-well microtiter plates with artificial diet were treated with aqueous test solutions prepared from 10,000 ppm DMSO stock solutions by pipetting. After drying, the plates were infested with L2 larvae (10 to 15 per well). The samples were assessed for mortality and growth inhibition in comparison to untreated samples 5 days after infestation. The following compounds gave an effect of at least 80% in at least one of the two categories (mortality or growth inhibition) at an application rate of 200 ppm: 1, 2, 3, 4, 7 and 10.

[6] = tested on: Euschistus heros; assay: Euschistus heros (Neotropical Brown Stink Bug) soybean leaf spray test; conditions: 120 h, application rate of 200 ppm, N2 nymphs, 5 days after infestation, read-out: effect in at least one of the two categories (mortality or growth inhibition)
Protocol: Euschistus heros (Neotropical Brown Stink Bug)
Soybean leaves on agar in 24-well microtiter plates were sprayed with aqueous test solutions prepared from 10,000 ppm DMSO stock solutions. After drying the leaves were infested with N2 nymphs. The samples were assessed for mortality and growth inhibition in comparison to untreated samples 5 days after infestation. The following compounds gave an effect of at least 80% in at least one of the two categories (mortality or growth inhibition) at an application rate of 200 ppm: 1, 3 and 7.

CCN(C(=O)c1cc(-c2cn(-c3c(OC(F)F)c(C(F)(F)C(F)(F)F)nn3C)nn2)sc1C#N)C1CC1 [Example 3, 2-cyano-N-cyclopropyl-5-[1-[4-(difluoromethoxy)-2-methyl-5-(1,1,2,2,2-pentafluoroethyl)pyrazol-3-yl]triazol-4-yl]-N-ethyl-thiophene-3-carboxamide]
≥ 80%: mortality at 200 ppm [1] | percent effect (mortality or growth inhibition) at 200 ppm [2] | percent control (mortality, anti-feedant effect or growth inhibition) at 200 ppm [3] | mortality at 200 ppm [4] | percent effect (mortality or growth inhibition) at 200 ppm [5] | percent effect (mortality or growth inhibition) at 200 ppm [6]

Cn1nc(C(F)(F)C(F)(F)F)c(OC(F)F)c1-n1cc(-c2cc(C(=O)NC3CC3)c(Cl)s2)nn1 [Example 7, 2-chloro-N-cyclopropyl-5-[1-[4-(difluoromethoxy)-2-methyl-5-(1,1,2,2,2-pentafluoroethyl)pyrazol-3-yl]triazol-4-yl]thiophene-3-carboxamide]
≥ 80%: mortality at 200 ppm [1] | percent effect (mortality or growth inhibition) at 200 ppm [2] | percent control (mortality, anti-feedant effect or growth inhibition) at 200 ppm [3] | percent effect (mortality or growth inhibition) at 200 ppm [5] | percent effect (mortality or growth inhibition) at 200 ppm [6]

Cn1nc(C(F)(F)C(F)(F)F)c(OC(F)F)c1-n1cc(-c2cc(C(=O)NC3(C#N)CC3)c(Cl)s2)nn1 [Example 10, 2-chloro-N-(1-cyanocyclopropyl)-5-[1-[4-(difluoromethoxy)-2-methyl-5-(1,1,2,2,2-pentafluoroethyl)pyrazol-3-yl]triazol-4-yl]thiophene-3-carboxamide]
≥ 80%: mortality at 200 ppm [1] | percent control (mortality, anti-feedant effect or growth inhibition) at 200 ppm [3] | percent effect (mortality or growth inhibition) at 200 ppm [5]

Cn1nc(C(F)(F)C(F)(F)F)c(OC(F)F)c1-n1cc(-c2cc(C(=O)NC3(C#N)CC3)c(C#N)s2)nn1 [Example 4, 2-cyano-N-(1-cyanocyclopropyl)-5-[1-[4-(difluoromethoxy)-2-methyl-5-(1,1,2,2,2-pentafluoroethyl)pyrazol-3-yl]triazol-4-yl]thiophene-3-carboxamide]
≥ 80%: mortality at 200 ppm [1] | percent control (mortality, anti-feedant effect or growth inhibition) at 200 ppm [3] | mortality at 200 ppm [4] | percent effect (mortality or growth inhibition) at 200 ppm [5]

Cn1nc(C(F)(F)C(F)(F)F)c(OC(F)F)c1-n1cc(-c2cc(C(=O)NC3CC3)c(C#N)s2)nn1 [Example 1, 2-cyano-N-cyclopropyl-5-[1-[4-(difluoromethoxy)-2-methyl-5-(1,1,2,2,2-pentafluoroethyl)pyrazol-3-yl]triazol-4-yl]thiophene-3-carboxamide]
≥ 80%: mortality at 200 ppm [1] | percent effect (mortality or growth inhibition) at 200 ppm [2] | percent control (mortality, anti-feedant effect or growth inhibition) at 200 ppm [3] | mortality at 200 ppm [4] | percent effect (mortality or growth inhibition) at 200 ppm [5] | percent effect (mortality or growth inhibition) at 200 ppm [6]

CN(C(=O)c1cc(-c2cn(-c3c(OC(F)F)c(C(F)(F)C(F)(F)F)nn3C)nn2)sc1C#N)C1CC1 [Example 2, 2-cyano-N-cyclopropyl-5-[1-[4-(difluoromethoxy)-2-methyl-5-(1,1,2,2,2-pentafluoroethyl)pyrazol-3-yl]triazol-4-yl]-N-methyl-thiophene-3-carboxamide]
≥ 80%: mortality at 200 ppm [1] | percent effect (mortality or growth inhibition) at 200 ppm [2] | percent control (mortality, anti-feedant effect or growth inhibition) at 200 ppm [3] | mortality at 200 ppm [4] | percent effect (mortality or growth inhibition) at 200 ppm [5]
